# Assay results reported in patent US20230414599A1, “NICOTINAMIDE, NICOTINAMIDE PRECURSORS AND NICOTINAMIDE METABOLITES AND COMPOSITIONS THEREOF FOR REDUCING THE TIME TO RESOLUTION OF SYMPTOMS IN PATIENTS WITH COVID-19 AND OTHER VIRAL INFECTIONS” (CONARIS RESEARCH INSTITUTE AG, priority 2020, published 2023).
# Assays:
# COVID-19 [1] = assay: Pilot phase of the COVit-1 dietary intervention trial (n = 16 outpatients); format: in vivo
# COVID-19 [2] = assay: COVit-1 trial expanded to 56 patients (nicotinamide vs silica); format: in vivo; conditions: for Absolute Risk difference of being symptom-free, 95% Confidence Level: nicotinamide vs silica; for Relative Risk of being symptom-free: silica = REF
# [3] = 1,000 mg/day immediate-release, n = 8, up to 21 days after positive SARS-CoV-2 test
# [4] = 1,000 mg/day, n = 8, up to 21 days after positive test
# [5] = only patients with symptoms persisting at week 4 queried, n = 3
# [6] = baseline, before supplementation, n = 28
# [7] = reduction at week 2 vs baseline, generalized linear mixed model
# [8] = week 2, 1,000 mg/day immediate-release, n = 28
smiles,measurement,setting,value
"NC(=O)c1cccnc1 [Nicotinamide, nicotinamide]",Proportion of subjects still suffering from at least one COVID-19 symptom at or before day 21 after first testing positive,"COVID-19 [1]; 1,000 mg nicotinamide per day for 28 days, n = 8",50%
same,Patients with anorexia/loss of appetite at week 2,COVID-19 [1]; [3],0
same,Patients with arthralgia at week 2,COVID-19 [1]; [3],0
same,Patients with chest pain at week 2,COVID-19 [1]; [3],0
same,Patients with cough at week 2,COVID-19 [1]; [3],2
same,Patients with diarrhoea at week 2,COVID-19 [1]; [3],1
same,Patients with dyspnoea/shortness of breath at week 2,COVID-19 [1]; [3],2
same,Patients with fatigue at week 2,COVID-19 [1]; [3],2
same,Patients with fever (total) at week 2,COVID-19 [1]; [3],1
same,Patients with fever <38° C. at week 2,COVID-19 [1]; [3],1
same,Patients with fever >38° C. at week 2,COVID-19 [1]; [3],1
same,Patients with headache at week 2,COVID-19 [1]; [3],1
same,Patients with impaired sense of smell at week 2,COVID-19 [1]; [3],1
same,Patients with impaired sense of taste at week 2,COVID-19 [1]; [3],1
same,Patients with myalgia at week 2,COVID-19 [1]; [3],0
same,Patients with reduced physical performance at week 2,COVID-19 [1]; [3],2
same,Patients with rhinorrhoea at week 2,COVID-19 [1]; [3],1
same,Patients with sore throat/pharyngalgia at week 2,COVID-19 [1]; [3],0
same,Patients with sputum production at week 2,COVID-19 [1]; [3],1
same,Patients with vomiting at week 2,COVID-19 [1]; [3],0
same,Patients requiring hospitalisation before week 2,"COVID-19 [1]; 1,000 mg/day, n = 8",no patient
same,Patients with persisting symptoms at week 4,"COVID-19 [1]; 1,000 mg/day, n = 8",3
same,Symptom-free patients at week 4,"COVID-19 [1]; 1,000 mg/day, n = 8",5
same,Patients with persisting symptoms at week 2,COVID-19 [1]; [4],4
same,Symptom-free patients at week 2,COVID-19 [1]; [4],4
same,Patients with persisting symptoms at week 6,COVID-19 [1]; [5],2
same,Symptom-free patients at week 6,COVID-19 [1]; [5],1
same,"Chest pain, patients with symptom",COVID-19 [2]; [6],25.0%
same,"Cough with sputum, patients with symptom",COVID-19 [2]; [6],25.0%
same,"Cough, patients with symptom",COVID-19 [2]; [6],71.4%
same,"Diarrhoea, patients with symptom",COVID-19 [2]; [6],28.6%
same,"Fatigue, patients with symptom",COVID-19 [2]; [6],82.1%
same,"Fever, patients with symptom",COVID-19 [2]; [6],50.0%
same,"Head cold (rhinorrhoea), patients with symptom",COVID-19 [2]; [6],78.6%
same,"Headache, patients with symptom",COVID-19 [2]; [6],78.6%
same,"Impaired sense of smell, patients with symptom",COVID-19 [2]; [6],60.7%
same,"Impaired sense of taste, patients with symptom",COVID-19 [2]; [6],64.3%
same,"Joint pain, patients with symptom",COVID-19 [2]; [6],35.7%
same,"Loss of appetite, patients with symptom",COVID-19 [2]; [6],42.9%
same,"Muscle pain, patients with symptom",COVID-19 [2]; [6],50.0%
same,"Other (individually reported) symptoms, patients with symptom",COVID-19 [2]; [6],28.6%
same,"Reduced physical performance, patients with symptom",COVID-19 [2]; [6],82.1%
same,"Shortness of breath, patients with symptom",COVID-19 [2]; [6],28.6%
same,"Sore throat, patients with symptom",COVID-19 [2]; [6],35.7%
same,"Vomiting, patients with symptom",COVID-19 [2]; [6],3.6%
same,"Loss of appetite, OR estimate nicotinamide vs. silica","COVID-19 [2]; reduction at week 2 vs baseline, footnote: OR very high",>>^‡
same,"Vomiting, OR estimate nicotinamide vs. silica","COVID-19 [2]; reduction at week 2 vs baseline, footnote: OR very high (unstable due to the small sample)",>>^‡‡
same,"Chest pain, OR estimate nicotinamide vs. silica",COVID-19 [2]; [7],12.7
same,"Cough with sputum, OR estimate nicotinamide vs. silica",COVID-19 [2]; [7],4.64
same,"Cough, OR estimate nicotinamide vs. silica",COVID-19 [2]; [7],1.01
same,"Diarrhoea, OR estimate nicotinamide vs. silica",COVID-19 [2]; [7],0.84
same,"Fatigue, OR estimate nicotinamide vs. silica",COVID-19 [2]; [7],2.72
same,"Fever, OR estimate nicotinamide vs. silica",COVID-19 [2]; [7],1.40
same,"Head cold (rhinorrhoea), OR estimate nicotinamide vs. silica",COVID-19 [2]; [7],1.41
same,"Headache, OR estimate nicotinamide vs. silica",COVID-19 [2]; [7],1.27
same,"Impaired sense of smell, OR estimate nicotinamide vs. silica",COVID-19 [2]; [7],2.05
same,"Impaired sense of taste, OR estimate nicotinamide vs. silica",COVID-19 [2]; [7],1.24
same,"Joint pain, OR estimate nicotinamide vs. silica",COVID-19 [2]; [7],2.74
same,"Muscle pain, OR estimate nicotinamide vs. silica",COVID-19 [2]; [7],1.09
same,"Other (individually reported) symptoms, OR estimate nicotinamide vs. silica",COVID-19 [2]; [7],1.07
same,"Reduced physical performance, OR estimate nicotinamide vs. silica",COVID-19 [2]; [7],1.19
same,"Shortness of breath, OR estimate nicotinamide vs. silica",COVID-19 [2]; [7],1.45
same,"Sore throat, OR estimate nicotinamide vs. silica",COVID-19 [2]; [7],9.25
same,"Chest pain, patients with symptom",COVID-19 [2]; [8],3.9%
same,"Cough with sputum, patients with symptom",COVID-19 [2]; [8],3.9%
same,"Cough, patients with symptom",COVID-19 [2]; [8],19.2%
same,"Diarrhoea, patients with symptom",COVID-19 [2]; [8],7.7%
same,"Fatigue, patients with symptom",COVID-19 [2]; [8],30.8%
same,"Fever, patients with symptom",COVID-19 [2]; [8],3.9%
same,"Head cold (rhinorrhoea), patients with symptom",COVID-19 [2]; [8],19.2%
same,"Headache, patients with symptom",COVID-19 [2]; [8],19.2%
same,"Impaired sense of smell, patients with symptom",COVID-19 [2]; [8],23.1%
same,"Impaired sense of taste, patients with symptom",COVID-19 [2]; [8],23.1%
same,"Joint pain, patients with symptom",COVID-19 [2]; [8],3.9%
same,"Loss of appetite, patients with symptom",COVID-19 [2]; [8],0.0%
same,"Muscle pain, patients with symptom",COVID-19 [2]; [8],3.9%
same,"Other (individually reported) symptoms, patients with symptom",COVID-19 [2]; [8],15.4%
same,"Reduced physical performance, patients with symptom",COVID-19 [2]; [8],34.6%
same,"Shortness of breath, patients with symptom",COVID-19 [2]; [8],26.9%
same,"Sore throat, patients with symptom",COVID-19 [2]; [8],3.9%
same,"Vomiting, patients with symptom",COVID-19 [2]; [8],0.0%
same,"Symptom-free, %","COVID-19 [2]; week 2, all COVID-19 patients, n = 28, intention to treat",35.7%
same,"Absolute Risk difference of being symptom-free, 95% Confidence Level","COVID-19 [2]; week 2, all patients",21.4 (−0.6; 43.4) %
same,Relative Risk of being symptom-free,"COVID-19 [2]; week 2, all patients",2.50
same,"Symptom-free, %","COVID-19 [2]; week 2, female patients, n = 17",47.1%
same,"Absolute Risk difference of being symptom-free, 95% Confidence Level","COVID-19 [2]; week 2, female patients",35.9 (8.1-63.8) ^ %
same,Relative Risk of being symptom-free,"COVID-19 [2]; week 2, female patients",4.24
same,"Symptom-free, %","COVID-19 [2]; week 2, male patients, n = 11",18.2%
same,"Absolute Risk difference of being symptom-free, 95% Confidence Level","COVID-19 [2]; week 2, male patients",1.8 (−35.5; 31.9) %
same,Relative Risk of being symptom-free,"COVID-19 [2]; week 2, male patients",0.91
same,"Time from diagnosis to symptom-free, median","COVID-19 [2]; week 2 analysis, all patients",11.0 days
same,"Time from diagnosis to symptom-free, median","COVID-19 [2]; week 2 analysis, female patients",10.5 days
same,"Time from diagnosis to symptom-free, median","COVID-19 [2]; week 2 analysis, male patients",13.0 days
same,"Symptom-free, %","COVID-19 [2]; week 4, all COVID-19 patients, n = 28, intention to treat",39.3%
same,"Absolute Risk difference of being symptom-free, 95% Confidence Level","COVID-19 [2]; week 4, all patients",−3.57 (−22.2; 29.3) %
same,Relative Risk of being symptom-free,"COVID-19 [2]; week 4, all patients",0.92
same,"Symptom-free, %","COVID-19 [2]; week 4, female patients, n = 17",52.9%
same,"Absolute Risk difference of being symptom-free, 95% Confidence Level","COVID-19 [2]; week 4, female patients",2.94 (−30.2; 36.1) %
same,Relative Risk of being symptom-free,"COVID-19 [2]; week 4, female patients",1.06
same,"Symptom-free, %","COVID-19 [2]; week 4, male patients, n = 11",18.2%
same,"Absolute Risk difference of being symptom-free, 95% Confidence Level","COVID-19 [2]; week 4, male patients",−0.12 (−48.2; 24.6) %
same,Relative Risk of being symptom-free,"COVID-19 [2]; week 4, male patients",0.61
same,Median time to resolution of symptoms compared to silica,"COVID-19 [2]; week 4, n = 28 per group",approximately half as long
same,"Time from diagnosis to symptom-free, median","COVID-19 [2]; week 4 analysis, all patients",13.0 days
same,"Time from diagnosis to symptom-free, median","COVID-19 [2]; week 4 analysis, female patients",13.0 days
same,"Time from diagnosis to symptom-free, median","COVID-19 [2]; week 4 analysis, male patients",16.5 days
